Reference: ChEMBL document CHEMBL1201862, “PubChem BioAssay data set” (2004)
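48-hour exposure; five concentrations; linearly interpolated endpoints. The concentration for 50% growth inhibition is given as GI50.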 Calls of active or inactive are those of the source. No stated cut-off is given here; in the data, active = GI50 up to about 1.1 µM and inactive = higher.

Legend:
Test in all cases: inhibition of tumour cell growth, NCI panel, 48 h
HCT-116 = test system: HCT-116
A498 = test system: A498
HT-29 = test system: HT-29
SK-OV-3 = test system: SK-OV-3
SNB-75 = test system: SNB-75
SK-MEL-5 = test system: SK-MEL-5
SF-295 = test system: SF-295
SF-539 = test system: SF-539
ACHN = test system: ACHN
OVCAR-4 = test system: OVCAR-4
UACC-62 = test system: UACC-62
SK-MEL-28 = test system: SK-MEL-28
K562 = test system: K562
OVCAR-8 = test system: OVCAR-8
Malme-3M = test system: Malme-3M
CAKI-1 = test system: CAKI-1
OVCAR-3 = test system: OVCAR-3
KM12 = test system: KM12
MCF7 = test system: MCF7

Measured: GI50

COc1cc(/C=C2\NC(=O)C3Cc4c(OC)c(C)c(OC)c(OC)c4C2N3C)c(OC)c(C)c1OC (centres undefined)
inactive: HCT-116 > 100 µM | A498 > 100 µM | HT-29 > 100 µM | SK-OV-3 > 100 µM | SNB-75 > 100 µM | SK-MEL-5 > 100 µM | SF-295 > 100 µM | SF-539 > 100 µM | ACHN > 100 µM | OVCAR-4 > 100 µM | UACC-62 > 100 µM | SK-MEL-28 > 100 µM | K562 > 100 µM | OVCAR-8 > 100 µM | Malme-3M > 100 µM | CAKI-1 > 100 µM | OVCAR-3 > 100 µM | KM12 > 100 µM

C=C1CC[C@]2(C)[C@H](CC[C@@]34C[C@@H](CC[C@H]32)[C@@H](C(=O)O)C4)C1(C)C
inactive: HCT-116 > 12.5 µM | A498 3.69 µM | HT-29 5.35 µM | SK-OV-3 > 12.5 µM | SK-MEL-5 8.24 µM | SF-295 8.24 µM | SF-539 6.19 µM | ACHN 8.63 µM | OVCAR-4 > 12.5 µM | UACC-62 > 12.5 µM | SK-MEL-28 > 12.5 µM | K562 4.21 µM | OVCAR-8 > 12.5 µM | Malme-3M > 12.5 µM | CAKI-1 > 12.5 µM | OVCAR-3 > 12.5 µM | MCF7 > 12.5 µM | KM12 > 12.5 µM

O=c1[nH]c(=O)n(C2OC(COP(=O)(O)OP(=O)(O)OC3OC(CO)C(O)C(O)C3O)C(O)C2O)cc1F (centres undefined)
inactive: SNB-75 1.64 µM | OVCAR-4 1.26 µM
active: HCT-116 < 0.0129 µM | A498 0.239 µM | HT-29 0.0582 µM | SK-OV-3 0.975 µM | SK-MEL-5 0.407 µM | SF-295 0.127 µM | SF-539 0.0552 µM | ACHN 0.0217 µM | UACC-62 0.307 µM | SK-MEL-28 0.229 µM | K562 0.0302 µM | OVCAR-8 0.0966 µM | Malme-3M 0.21 µM | CAKI-1 0.109 µM | OVCAR-3 0.552 µM | KM12 0.0317 µM

CSc1nc2c(nc(N)n2C2OC(CO)C(O)C(O)C2O)c(=O)[nH]1 (centres undefined)
inactive: HCT-116 > 100 µM | A498 > 100 µM | HT-29 > 100 µM | SK-OV-3 > 100 µM | SNB-75 > 100 µM | SK-MEL-5 > 100 µM | SF-295 > 100 µM | SF-539 > 100 µM | ACHN > 100 µM | OVCAR-4 > 100 µM | UACC-62 > 100 µM | SK-MEL-28 > 100 µM | K562 > 100 µM | OVCAR-8 > 100 µM | Malme-3M > 100 µM | CAKI-1 > 100 µM | OVCAR-3 > 100 µM | KM12 > 100 µM

O=C(OCc1ccccc1)n1cccc1
inactive: HCT-116 84.9 µM | A498 > 100 µM | HT-29 65.9 µM | SK-OV-3 > 100 µM | SNB-75 31.8 µM | SK-MEL-5 > 100 µM | SF-295 > 100 µM | SF-539 > 100 µM | ACHN > 100 µM | OVCAR-4 > 100 µM | UACC-62 > 100 µM | SK-MEL-28 > 100 µM | K562 97.1 µM | OVCAR-8 > 100 µM | Malme-3M > 100 µM | CAKI-1 > 100 µM | OVCAR-3 > 100 µM | KM12 > 100 µM

COc1cc(/C=C2\S/C(=N/Nc3nc(-c4ccc(Br)cc4)cs3)NC2=O)cc(OC)c1OC
inactive: HCT-116 4.49 µM | HT-29 18.4 µM | SK-OV-3 13 µM | SNB-75 9.2 µM | SK-MEL-5 5.02 µM | SF-295 12.4 µM | SF-539 8.83 µM | ACHN 11 µM | OVCAR-4 17.8 µM | UACC-62 11.1 µM | SK-MEL-28 10.4 µM | OVCAR-8 14.5 µM | CAKI-1 18.2 µM | OVCAR-3 13.6 µM | MCF7 15.4 µM | KM12 7.73 µM

O=C(Nc1ccccc1)OCc1nc2c([nH]1)C(=O)C=CC2=O
active: CAKI-1 0.35 µM
inactive: HCT-116 14.9 µM | A498 16.2 µM | HT-29 27.5 µM | SK-OV-3 15.9 µM | SNB-75 19.3 µM | SK-MEL-5 14.3 µM | SF-295 18.6 µM | SF-539 > 100 µM | ACHN 12.6 µM | OVCAR-4 14.3 µM | UACC-62 19.7 µM | SK-MEL-28 15.6 µM | K562 2.55 µM | OVCAR-8 15.5 µM | Malme-3M 6.4 µM | OVCAR-3 16.7 µM | KM12 15.6 µM

CCC12C[N+]3([O-])CCc4c([nH]c5ccccc45)C(C(=O)OC)(c4cc5c(cc4OC)N(C)C4C(O)(C(=O)OC)C(OC(C)=O)C6(CC)C=CCN7CCC54C76)CC(C3)C1O2 (centres undefined)
inactive: A498 1.55 µM | ACHN 10.5 µM | OVCAR-4 13.3 µM | OVCAR-8 2.67 µM | Malme-3M 1.61 µM | CAKI-1 5.93 µM
active: HCT-116 0.41 µM | HT-29 0.342 µM | SK-OV-3 0.336 µM | SNB-75 0.242 µM | SK-MEL-5 0.288 µM | SF-295 0.291 µM | SF-539 0.28 µM | UACC-62 0.323 µM | SK-MEL-28 0.236 µM | K562 0.207 µM | OVCAR-3 0.337 µM | KM12 0.337 µM

CN(C)C(=S)Nc1nnc(NC23CC4CC(CC(C4)C2)C3)s1.[O-][Cl+3]([O-])([O-])O
inactive: HCT-116 13.3 µM | A498 15 µM | HT-29 5.81 µM | SK-OV-3 43.8 µM | SF-295 13.8 µM | SF-539 10 µM | ACHN 21.8 µM | OVCAR-4 16.1 µM | UACC-62 16.5 µM | SK-MEL-28 15 µM | K562 15.8 µM | OVCAR-8 26.7 µM | Malme-3M 17.3 µM | CAKI-1 20.1 µM | OVCAR-3 18.7 µM | KM12 18.7 µM
active: SNB-75 0.1 µM | SK-MEL-5 0.1 µM

CC1=C2C(=CC(C)(C)C2O)C(=O)C(C)(O)C12CC2 (centres undefined)
active: HCT-116 0.00325 µM | A498 0.0279 µM | HT-29 0.0028 µM | SK-OV-3 0.0262 µM | SNB-75 0.0123 µM | SK-MEL-5 0.00567 µM | SF-295 0.00724 µM | SF-539 0.0209 µM | ACHN 0.00479 µM | OVCAR-4 0.00513 µM | UACC-62 0.0116 µM | SK-MEL-28 0.0247 µM | K562 0.00558 µM | OVCAR-8 0.00948 µM | Malme-3M 0.012 µM | CAKI-1 0.00552 µM | OVCAR-3 0.0112 µM | KM12 0.0158 µM

NCCC(=O)N[C@@H](Cc1cc(O)c(O)c(SCC(NC(=O)CC[C@H](N)C(=O)O)C(=O)NCC(=O)O)c1)C(=O)O (some centres undefined)
inactive: HCT-116 > 50 µM | A498 > 50 µM | HT-29 > 50 µM | SK-OV-3 > 50 µM | SNB-75 > 50 µM | SF-295 > 50 µM | ACHN > 50 µM | OVCAR-4 > 50 µM | UACC-62 > 50 µM | SK-MEL-28 > 50 µM | K562 > 50 µM | Malme-3M > 50 µM | CAKI-1 > 50 µM | OVCAR-3 > 50 µM | MCF7 > 50 µM | KM12 > 50 µM
